Here are results for 64 molecules from ChEMBL document CHEMBL2094260, “Malaria Box Tuberculosis Screening Data”.

Assay [1] relates to Mycobacterium tuberculosis. In words: MMV: Screen against Mtb, single point, non replicating, at 25uM. It is filed as functional.
Assay [2] deals with Mycobacterium tuberculosis. In words: MMV: Screen against Mtb, single point, replicating, at 25uM. It is filed as functional.

Broadly, the inhibition is the change of the read-out against control, counted positive when it falls. Regarding `COc1ccc(-c2cc3c(nn2)-c2ccccc2C3=O)cc1`, the inhibition at 25 µM in assay [1] is 26.7%; in assay [2], 39%.
The corresponding values for `COc1ccc(/C=C2/SC(=Nc3ccccc3)NC2=O)cc1` are 24.4% and 15.9%.
The corresponding values for `c1ccc(/C2=N/c3ccccc3/N=C(/c3ccccc3)c3ccccc32)cc1` are 23.5% and 22.3%.
The corresponding values for `CCOC(=O)c1c(C)n(-c2ccccc2)c2ccc(OC(=O)c3cc(OC)c(OC)c(OC)c3)cc12` are 6.46% and 22.2%.
With `COc1ccc(C2c3ccc4ccccc4c3Oc3ncn(CCCn4ccnc4)c(=N)c32)cc1OC` (stereo not drawn), the inhibition at 25 µM in assay [1] came out at 11.1%; in assay [2] it was 46.8%.
`CN(N=O)C1=C(NC2CCCCC2)C(=O)c2ccccc2C1=O`: the inhibition at 25 µM in assay [1] is 7.53%; in assay [2], -2.12%.
Turning to `CCOC(=O)C1=C(C)N=c2sc(=Cc3ccccc3O)c(=O)n2C1c1ccc(OC)c2ccccc12` (stereo not drawn), the inhibition at 25 µM in assay [1] is 24.4%; in assay [2] it was 4%.
`Cc1ccc(C(=O)c2oc3ccc4c(C)cc(=O)oc4c3c2C)cc1`: the inhibition at 25 µM in assay [1] was found to be 5.4%; in assay [2], 1.18%.
The corresponding values for `COc1ccc(CN2CCCC(C(=O)c3ccc(C(F)(F)F)cc3)C2)c(O)c1` (stereo not drawn) are 1.85% and 35.3%.
In the case of `CCCCCCc1cc2cc(-c3csc(C=Cc4ccccc4)n3)c(=O)oc2cc1O`, the values for the inhibition at 25 µM in assay [1] and in assay [2] were 9.83% and -0.392%, respectively.
Take `O=C(NC1CCCCC1)C(c1cccs1)N(CCc1ccccc1)C(=O)c1ccco1` (stereo not drawn): the inhibition at 25 µM stood at 2.2% in assay [1] and 22.2% in assay [2].
The corresponding values for `CC(Oc1ccc(NC(=O)c2cccs2)cc1)C(=O)c1ccc(Cl)cc1` (stereo not drawn) are -0.638% and 2.74%.
For `c1ccc2c(NCCCCCCNc3c4c(nc5ccccc35)CCCC4)c3c(nc2c1)CCCC3`, the inhibition at 25 µM in assay [1] was found to be 17.8%; in assay [2], 32.7%.
The corresponding values for `COc1ccc(CNC(=O)c2cc3c(=O)n4ccccc4nc3n(CCc3ccccc3)c2=N)cc1` are 6.82% and 20.3%.
The corresponding values for `O=C(NC1CCN(Cc2ccccc2)CC1)c1cc(C(=O)NC2CCN(Cc3ccccc3)CC2)cc(C(=O)NC2CCN(Cc3ccccc3)CC2)c1` are 3.44% and 7.92%.
The corresponding values for `Cc1ccnc(NC(c2cccc(OCc3ccccc3)c2)c2ccc3cccnc3c2O)c1` (stereo not drawn) are 22.3% and 6.19%.
In the case of `COc1ccc(-c2cn3c(C(=O)Nc4ccccc4Cl)c(-c4ccccc4)c4c3n2CCCC4)cc1`, the results for the inhibition at 25 µM in assay [1] and in assay [2] were 2.56% and 8.39%, respectively.
The corresponding values for `Cn1c(=O)n(C)c2cc(CNCCNc3ccnc4cc(Cl)ccc34)ccc21` are 8.95% and 11.4%.
The corresponding values for `CCN(CC)CCNc1ccnc2cc3ccccc3cc12` are 0.0721% and 0.862%.
The corresponding values for `N=c1c2ccccc2nnn1-c1cccc(C(F)(F)F)c1` are -4.19% and 7.29%.
Turning to `COc1cc(-c2nc(-c3ccc(Sc4ccccc4)cc3)c(-c3ccccc3)[nH]2)cc(OC)c1O`, the inhibition at 25 µM was found to be 13.6% in assay [1] and 16.5% in assay [2].
The corresponding values for `O=c1cc(NC2CCN(CCCc3ccccc3)CC2)c2cc(Cl)ccc2o1` are 14.3% and 24.2%.
The corresponding values for `COc1ccc(C=C2SC(Nc3ccc(F)cc3)=NC2=O)c(OC)c1` are 7.53% and 23.3%.
The corresponding values for `OC(Cn1nnc2ccccc21)Cn1c2ccc(Br)cc2c2cc(Br)ccc21` (stereo not drawn) are -5.78% and 4.62%.
In the case of `CCOc1ccc(-n2cc(-c3ccccc3)c3c(SCc4cc(C)ccc4C)ncnc32)cc1`, the inhibition at 25 µM in assay [1] is 21.9%; in assay [2], -0.392%.
The corresponding values for `Cc1ccc(C)c(Cn2c(N3CCC(C(=O)NCc4cccs4)CC3)nc3ccccc32)c1` are 10.4% and 22%.
The corresponding values for `Cc1ccccc1OCCSc1nc2ccc(NC(=O)c3cccs3)cc2s1` are 16.4% and 51.3%.
The corresponding values for `CC1CCN(Cc2c(O)ccc3cc(-c4nc5ccccc5s4)c(=O)oc23)CC1` are 12% and 8.23%.
On to `CCOc1cc2c(cc1OCC)C(c1cc(Cl)ccc1O)NCC2` (stereo not drawn), for which the figures for the inhibition at 25 µM in assay [1] and in assay [2] were -6.67% and 7.45%, respectively.
The corresponding values for `COc1ccc(C2C(C(=O)Nc3cccc(OC)c3)c3ccccc3C(=O)N2C2CCCCC2)cc1` (stereo not drawn) are 29% and 19.5%.
The corresponding values for `c1ccc2c(NCCc3c[nH]c4ccccc34)c3ccccc3nc2c1` are 17.8% and 47.1%.
Turning to `O=C(Nc1ccc(C23CC4CC(CC(c5ccccc5)(C4)C2)C3)cc1)c1cccs1`, the inhibition at 25 µM in assay [1] was -0.283%; in assay [2] it was 9.48%.
The corresponding values for `CCN(CC)CCCNc1ccnc2cc3ccccc3cc12` are 14.6% and 8.7%.
The corresponding values for `CCOC(=O)c1cnc2c(C)cccc2c1Nc1ccc(C(C)=O)cc1` are 8.24% and 0.392%.
For `O=C(Nc1ccc(-c2nc3cc4ccccc4cc3[nH]2)cc1)c1cccc(Br)c1`, the inhibition at 25 µM in assay [1] was determined as 37%; in assay [2], 8.07%.
The corresponding values for `Cc1ccc(-c2nc3ccccc3o2)cc1NCc1cc(Cc2ccccc2)ccc1O` are 10.4% and 1.18%.
The corresponding values for `Cc1ccc(C2CC(C(F)(F)F)n3nc(C(=O)N4CCN(C(c5ccccc5)c5ccccc5)CC4)cc3N2)cc1` (stereo not drawn) are 10.5% and 14.3%.
With `Cc1ccc2nc(C)cc(Nc3cccc(C(F)(F)F)c3)c2c1`, the values for the inhibition at 25 µM in assay [1] and in assay [2] were 10.4% and 39%, respectively.
The corresponding values for `COc1cccc(C(=O)NC(c2ccc(C)cc2)c2cc(Cl)c3cccnc3c2O)c1` (stereo not drawn) are 14.3% and 10.4%.
The corresponding values for `COc1ccc(C(O)(CCC(C)C)C(CN2CCOCC2)c2ccc(Cl)cc2)cc1` (stereo not drawn) are 10% and 4.78%.
The corresponding values for `CCCOCc1cc(CN2CCN(c3cccc(Cl)c3)CC2)c(O)c2ncccc12` are 1.85% and 5.25%.
Regarding `O=C(Cc1ccccc1)NC(c1ccc(Cl)cc1)c1c(O)ccc2ccccc12` (stereo not drawn), the inhibition at 25 µM in assay [1] was -0.46%; in assay [2], 12%.
The corresponding values for `CCOc1ccc2c(c1)CN(Cc1ccc(Cl)cc1)CO2` are 20.5% and 16.1%.
The corresponding values for `CCCCC(O)(c1ccc(Cl)cc1)C(CN1CCOCC1)c1ccc(Cl)cc1` (stereo not drawn) are 15.2% and 17.3%.
The corresponding values for `COc1ccc(C(=O)NC(c2ccccc2Cl)c2cc(Cl)c3cccnc3c2O)cc1` (stereo not drawn) are 5.04% and 10.6%.
Regarding `Cc1cccc(N2C(=O)C3C(C2=O)C2(c4ccccc4)C(=O)C3(c3ccccc3)C(c3ccc4c(c3)OCO4)=C2c2ccc3c(c2)OCO3)c1` (stereo not drawn), the inhibition at 25 µM in assay [1] is 16.4%; in assay [2], 23.1%.
In the case of `Cc1cc(=O)oc2c1ccc1oc(C(=O)c3ccccc3)c(C)c12`, the values for the inhibition at 25 µM in assay [1] and in assay [2] were 21.4% and 13.4%, respectively.
The corresponding values for `COc1ccc2c(c1OC)C(=O)N1c3ccccc3N=C(c3ccc(C)cc3)CC21` (stereo not drawn) are 15.2% and 4.94%.
`CCCCCCc1cc(O)c2c3c(c(=O)oc2c1)CCC(C)C3` (stereo not drawn): the inhibition at 25 µM is 11.4% in assay [1] and 12.8% in assay [2].
Regarding `CCCc1c(C)nc2ccc(Br)cc2c1O`, the inhibition at 25 µM stood at 12.5% in assay [1] and 13.7% in assay [2].
The corresponding values for `COc1ccc(CCNC(=O)c2cc(S(=O)(=O)N3CC(C)CC(C)C3)ccc2Sc2ccc(F)cc2)cc1OC` (stereo not drawn) are 22.6% and -6.51%.
For `Cc1ccc(F)cc1NC(=O)c1cc(Cl)ccc1Nc1ccccc1`, the inhibition at 25 µM in assay [1] came out at 28.5%; in assay [2] it was 6.66%.
The corresponding values for `CCOc1ccc(Nc2c3ccccc3nc3ccccc23)cc1` are 15.9% and 51.8%.
The corresponding values for `CC1=C(CC(=O)c2cccc([N+](=O)[O-])c2)C(=O)c2ccccc2C1=O` are 20.1% and 40.5%.
The corresponding values for `CCCCCCc1cc2cc(-c3nc4ccccc4[nH]3)c(=Nc3ccccc3C)oc2cc1O` are 28.5% and 4.31%.
With `CCCCCCC(O)(c1ccc(F)cc1)C(CN1CCOCC1)c1ccccc1` (stereo not drawn), the values for the inhibition at 25 µM in assay [1] and in assay [2] were 19.8% and 3.84%, respectively.
In the case of `COc1cc(OC)cc(N2C(=O)N(Cc3ccc(C(C)(C)C)cc3)c3ccccc3S2(=O)=O)c1`, the results for the inhibition at 25 µM in assay [1] and in assay [2] were 13.6% and 2.59%, respectively.
The corresponding values for `CCOc1c(Br)cc(C2C(C(=O)OC)=CN(C)C=C2C(=O)OC)cc1OC` are 14.1% and 7.76%.
Consider `COc1ccc2sc(N(Cc3cccnc3)C(=O)c3ccc(C#N)cc3)nc2c1`, for which the inhibition at 25 µM in assay [1] came out at 5.22%; in assay [2], 15%.
The corresponding values for `CC1CC2=C(CC1CNCCCN(C)C)C(C)(C)CCC2` (stereo not drawn) are -0.993% and 42.2%.
Regarding `CN(C)c1ccc(N=Cc2ccc(N3CCOCC3)cc2)cc1`, the inhibition at 25 µM in assay [1] is -1.53%; in assay [2], 38.8%.
The corresponding values for `COc1ccccc1N1C(=N)SC(=Cc2ccc(OCc3ccccc3F)cc2)C1=O` are 21.4% and 8.86%.
The corresponding values for `CCOC(=O)c1c[nH]c2c(CC)cccc2c1=O` are 11.1% and 4.62%.
The corresponding values for `CCCCc1c(CCC)c(=N)c2ccccc2n1C` are -5.96% and 6.04%.
